The values below come from patent US20090023666A1, “Modulators of Hypoxia Inducible Factor-1 and Related Uses” (priority 2006, published 2009).

One data set has as its system MES-SA-DX5. As to the kind of experiment: Anti-proliferative activity, MES-SA-DX5. It is filed as cell-based. As to conditions: Homo sapiens. Here is the method: (§1) FIG. 8 is a graph depicting the mRNA levels of α-1 and α-3 isoforms quantitated by real time RT-PCR (TaqMan) using fluorescent labeled TaqMan probes. Anti-proliferation (IC50 values) activity of BNC4 on indicated cell lines was determined by MTS assay. Total alpha levels (al+a3) were plotted against (1/IC50) X100 values.

In the next data set the test system is 786-O. As to the kind of experiment: Anti-proliferative activity, 786-O. It is filed as cell-based. As to conditions: Homo sapiens. Here is the method: as §1
A further data set relates to MCF-7. Kind of data set: Anti-proliferative activity, MCF-7. It is filed as cell-based. The conditions noted are these: Homo sapiens. Here is the method:
as §1

Another data set has as its system PC3. Kind of data set: Anti-proliferative activity, PC3. It is filed as cell-based. As to conditions: Homo sapiens. On the procedure:
as §1

The next data set has as its system tumor cell lines. Kind of data set: Anti-proliferative activity in tumor cell lines (panel). It is filed as cell-based, human. As to conditions: for IC50: Homo sapiens, read-out: IC50 range over the tumor cell lines. On the procedure: as §1
For another data set, the system named is SNB-78. As to the kind of experiment: Anti-proliferative activity, SNB-78. It is filed as cell-based. As to conditions: Homo sapiens. On the procedure: as §1
The next data set concerns HIF-1α and HIF-2α. Kind of data set: Induction of HIF-1α and HIF-2α during hypoxia (Western blotting). It is filed as cell-based. The conditions noted are these: for HIF-1α and HIF-2α protein expression: Caki-1, A549, Panc-1, Hep3B cells, hypoxia (1% O2) 4 hours, BNC4 0.1 μM, BP228 and BP244 0.1 and 1.0 μM; for protein expression of HIF-1β, NIK, Hsp90, DR4, Bcl-2 and β-actin: same cells and treatment, specificity. On the procedure: Caki-1 (renal cancer), A549 (lung cancer), Panc-1 (pancreatic cancer) and Hep3B (liver cancer) cells were treated with BNC4, BP228 and BP244 under hypoxic conditions. The cells were treated with indicated each compound for 4 hours under normoxic (N, 20% O2) or hypoxic (H, 1% O2) conditions. Expression of HIF-1α, HIF-1β and β-actin and other proteins was analyzed by Western blotting. The HIF-1α and HIF-2α protein levels increased in cells cultured under these conditions for 4 hours without any treatment. […] The inhibition was specific as levels of constitutively expressed HIF-1β were not affected by any of the drugs.
(In western blotting, separated proteins are transferred to a membrane and probed.)

For the next data set, the system named is A549. As to the kind of experiment: cells. The conditions noted are these: Homo sapiens. It is filed as cell-based. On the procedure: as §1
Another data set has as its system Caki-1 (CAKI). As to the kind of experiment: cells. It is filed as cell-based. As to conditions: Homo sapiens. On the procedure:
as §1

A further data set concerns IGR-OV1. As to the kind of experiment: Anti-proliferative activity, IGR-OV1. It is filed as cell-based. The conditions noted are these: Homo sapiens. On the procedure:
as §1

The nature of data set [1]: Pharmacokinetics following IP administration in mice. It is filed as in vivo. The conditions noted are these: for tlast / Tmax: i.p.; for half-life: read-out: t1/2 (terminal elimination half-life) (converted). Here is the method:
FIG. 13 is a graph depicting the pharmacokinetic profiled of BNC4, BP228 and BP244 in mice. The compounds were administered by intraperitoneal (i.p) injection at 2.5 mg/kg and 5.0 mg/kg for BP228 and at 5.0 mg/kg for BNC4 and BP244. The plasma samples were collected at various time points and concentration of compounds was analyzed by LC-MS. Pharmacokinetic parameters are provided in Example 23.
The compounds were administered by intraperitoneal (i.p) injection at 2.5 mg/kg and 5.0 mg/kg for BP228 and at 5.0 mg/kg for BNC4 and BP244. The plasma samples were collected at various time points and concentration of compounds was analyzed by LC-MS.

A further data set deals with Caki-1 tumors. Kind of data set: In vivo activity against renal cancer cell line Caki-1 xenograft. The conditions noted are these: Caki-1 bearing nude mice. Here is the method: Female nude mice (nu/nu) between 5 and 6 weeks of age weighing approximately 20 g were implanted subcutaneously (s.c.) by trocar with fragments of human tumors harvested from s.c. grown tumors in nude mice hosts. When the tumors were approximately 60-75 mg in size (about 10-15 days following inoculation), the animals were pair-matched into treatment and control groups. Each group contained 8-10 mice. The administration of drugs or controls began on the day the animals were pair-matched (Day 1). Pumps (Alzet® Model 2002) with a flow rate of 0.5 μl/hr were implanted s.c. between the shoulder blades of each mice. Mice were weighed and tumor measurements were obtained using calipers twice weekly, starting Day 1. These tumor measurements were converted to mg tumor weight by standard formula, (W^2XL)/2. The experiment was terminated when the control group tumor size reached an average of about 1 gram. Upon termination, the mice were weighed, sacrificed and their tumors excised. The tumors were weighed and the mean tumor weight per group was calculated.

The next data set deals with Na-K-ATPase. As to the kind of experiment: Na-K-ATPase enzyme assay (inorganic phosphate liberated from ATP), pig brain. It is filed as biochemical. As to conditions: pig brain. Here is the method:
Compounds were tested for their activity on Na-K-ATPase enzyme in an in vitro enzyme assay. The ATPase activity was assayed as the amount of inorganic phosphate liberated from ATP by Dog Kidney or Porcine cerebral cortex Na-K-ATPase.

The conditions of data set [2]: cited from earlier work.
The test system of data set [3] is HIF-1α. As to the kind of experiment: Inhibition of HIF-1α induced under normoxia by PHD inhibitor L-mimosone (Western blotting). It is filed as cell-based. As to conditions: Hep3B cells, 200 μM L-mimosone 18 hours. Here is the method: Abundance of HIF1α and β-actin was determined by Western blotting.
For data set [4], the system named is HIF-1α. Kind of data set: Inhibition of hypoxia-mediated HIF-1α induction (immunoblotting). It is filed as cell-based, human. As to conditions: Caki-1 or Panc-1 cells under hypoxia.
[5] abbreviates: MES-SA/Dx5, read-out: Anti-Proliferative activity IC50.
Setting [6] is: 786-0, read-out: Anti-Proliferative activity IC50.
[7] abbreviates: MCF7, read-out: Anti-Proliferative activity IC50.
Setting [8] is: PC-3, read-out: Anti-Proliferative activity IC50.
Setting [9] is: SNB-78, read-out: Anti-Proliferative activity IC50.
Where [10] appears, read: A549, read-out: Anti-Proliferative activity IC50.
Setting [11] is: CAKI-1, read-out: Anti-Proliferative activity IC50.
Where [12] appears, read: IGROV-1, read-out: Anti-Proliferative activity IC50.
[13] abbreviates: mouse, plasma, ip, 5 mg/kg, 5 mg/kg, read-out: tmax.

Entries after “also recorded” stand apart in the source; their conditions may differ. Where two headings read alike, the source gives them in different places.

Usually IC50 stands for the point on the concentration scale where inhibition reaches its midpoint. As usually defined, the Tmax is the time at which the peak concentration occurs. Broadly, the AUC is the area under the concentration-time curve, a measure of exposure. Low values mean less exposure, high ones more exposure. For orientation: Cmax means the maximum level reached in the sampled fluid or tissue.

Turning to `C[C@]12CC/C(=N\OCCN3CCCCC3)C=C1CC[C@@H]1[C@@H]2CC[C@]2(C)[C@@H](c3ccc(=O)oc3)CC[C@]12O` [BP228], the IC50 in the data set with MES-SA-DX5 (setting [5]) stood at 15.8 nM; with 786-O (setting [6]) it was 8.9 nM; in the data set with MCF-7 (setting [7]), 19.8 nM; with PC3 (setting [8]), 6.2 nM; with tumor cell lines, 640 nM; in the data set with SNB-78 (setting [9]), 15.9 nM. Besides, the figures for the IC50 in the data set with A549 (setting [10]), with Caki-1 (CAKI) (setting [11]) and in the data set on IGR-OV1 (setting [12]) were 7.3 nM, 13 nM and 31.9 nM, respectively. In addition, in the data set with HIF-1α and HIF-2α, the “HIF-1α and HIF-2α protein expression” value is “inhibition of hypoxia-mediated HIF-1α induction; also recorded: almost complete inhibition”. The “protein expression of HIF-1β, NIK, Hsp90, DR4, Bcl-2 and β-actin” value (shortened to “protein expression of HIF-1β, NIK, Hsp90”) in the data set with HIF-1α and HIF-2α is recorded as “no effect”. The tlast in [1] (2.5 mg/kg) and in data set [1] (5 mg/kg) was 6 h in each case. The Tmax stood at 5 min in data set [1] (5 mg/kg, listed as BNC228, 5 mg/kg); 10 min in data set [1] (mouse, plasma, ip, 2.5 mg/kg, 2.5 mg/kg, read-out: tmax); 4.98 min in [1] (setting [13]). Besides, the AUC in data set [1] (mouse, plasma, ip, 2.5 mg/kg) was 1020 ng·h/mL; in [1] (mouse, plasma, ip, 5 mg/kg), 2350 ng·h/mL. Also, the Cmax was found to be 715 ng/mL in data set [1] (mouse, plasma, ip, 2.5 mg/kg) and 1200 ng/mL in [1] (mouse, plasma, ip, 5 mg/kg). The half-life was 90 min in [1] (mouse, plasma, ip, 2.5 mg/kg) and 114 min in data set [1] (mouse, plasma, ip, 5 mg/kg).

Turning to `C[C@@H]1O[C@@H](O[C@@H]2C=C3CC[C@@H]4[C@H](CC[C@]5(C)[C@@H](c6ccc(=O)oc6)CC[C@]45O)[C@@]3(C)CC2)[C@H](O)[C@H](O)[C@H]1N` [BP244], the concentration for half-maximal inhibition (IC50) is 13.5 nM in the data set on MES-SA-DX5 (setting [5]); 8 nM in the data set on 786-O (setting [6]); 8.2 nM with MCF-7 (setting [7]); 98 µM at Na-K-ATPase (FIG. 9, read-out: IC50, Na-K-ATPase); 5.7 nM in the data set on PC3 (setting [8]); 5 to 14 nM in the data set with tumor cell lines. In addition, the IC50 in the data set with SNB-78 (setting [9]) is 7.7 nM; in the data set with A549 (setting [10]), 4.8 nM; in the data set on Caki-1 (CAKI) (setting [11]) it was 8 nM; in the data set on IGR-OV1 (setting [12]) it was 12.1 nM. Further, the adverse effects entry in the data set with Caki-1 tumors (15 mg/ml pump) was “without any adverse effects”. Moreover, the “tumor growth inhibition (TGI)” value in the data set with Caki-1 tumors (15 mg/ml, s.c. Alzet pump 0.5 μl/hr) is listed as 83%. For the same compound, the “activity on Na-K-ATPase relative to BP228” value in the data set on Na-K-ATPase is “twice as active as BP228”. Besides, the “HIF-1α and HIF-2α protein expression” value in the data set on HIF-1α and HIF-2α is on record as “inhibition of hypoxia-mediated HIF-1α induction; also recorded: almost complete inhibition”. For the same compound, the “protein expression of HIF-1β, NIK, Hsp90” value in the data set on HIF-1α and HIF-2α is reported as “no effect”. The tlast in data set [1] (5 mg/kg) is recorded as 24 h. In [1] (mouse, plasma, ip, 5 mg/kg), this compound showed an AUC of 4630 ng·h/mL. For the same compound, in data set [1] (mouse, plasma, ip, 5 mg/kg), the concentration peaked (Cmax) at 2120 ng/mL. Besides, the Tmax in data set [1] (setting [13]) came out at 30 min. Besides, the half-life in data set [1] (mouse, plasma, ip, 5 mg/kg) was 270 min.

As to `C[C@@H]1O[C@@H](O[C@@H]2C=C3CC[C@@H]4[C@H](CC[C@]5(C)[C@@H](c6ccc(=O)oc6)CC[C@]45O)[C@@]3(C)CC2)[C@H](O)[C@H](O)[C@H]1O` [BNC4, proscillaridin, reference compound], the IC50 came to 11.6 nM in the data set on MES-SA-DX5 (MES-SA-DX5, Uterine, read-out: Anti-Proliferative activity IC50); 8.4 nM in the data set on 786-O (786-0, 786-O, Renal, read-out: Anti-Proliferative activity IC50); 8.4 nM in the data set on MCF-7 (MCF7, MCF-7, Breast (ER+), read-out: Anti-Proliferative activity IC50); 4.1 nM in the data set with PC3 (PC-3, PC3, Prostate, read-out: Anti-Proliferative activity IC50); 418 nM in the data set on tumor cell lines (range over cell lines of Table 2); 10.1 nM in the data set with SNB-78 (SNB-78, CNS, read-out: Anti-Proliferative activity IC50). In addition, the IC50 in the data set on A549 (A549, NSCL, read-out: Anti-Proliferative activity IC50) came to 3.5 nM; in the data set with Caki-1 (CAKI) (CAKI-1, CAKI, Renal, read-out: Anti-Proliferative activity IC50), 7.5 nM; in the data set on IGR-OV1 (IGROV-1, IGR-OV1, Ovarian, read-out: Anti-Proliferative activity IC50) it was 12.3 nM. In addition, the “plasma half-life in human” value in data set [2] (human, according to the literature) was “about 40 hours”. The max. plasma concentration result in data set [2] (in vivo) is “about 0.1 μg/mL”. In addition, in the data set on tumor cell lines (SNB75 and RPMI-8226 compared with A549 or PC-3, MTS assay), the “sensitivity of cell lines expressing very low levels of α-chain” value is reported as “very resistant”. For the same compound, the “HIF-1α accumulation by L-mimosone” value in the data set on HIF-1α [3] is on record as “blocks HIF-1α induction; also recorded: eliminated HIF-1α accumulation by L-mimosone”. The “HIF-1α and HIF-2α protein expression” value with HIF-1α and HIF-2α is listed as “inhibition of hypoxia-mediated HIF-1α induction; also recorded: almost complete inhibition”. Also, the “protein expression of HIF-1β, NIK, Hsp90” value with HIF-1α and HIF-2α is on record as “no effect”. In the data set on HIF-1α [4], the “potency in inhibiting HIF-1α expression relative to BNC1” value is listed as “about 10 times”. Besides, the tlast in data set [1] (5 mg/kg) amounted to 6 h. Besides, the AUC in data set [1] (mouse, plasma, ip, 5 mg/kg) worked out at 4570 ng·h/mL. The same compound displayed a Cmax in data set [1] (mouse, plasma, ip, 5 mg/kg) of 3610 ng/mL. For the same compound, the Tmax in data set [1] (setting [13]) amounted to 15 min. In data set [1] (mouse, plasma, ip, 5 mg/kg), the half-life is 48 min.
